# From PubChem BioAssay AID328 (DTP/NCI, 2004)
# “And” between values parts separate entries of the source, which are not always exact repeats. Equal values may be shown once. Toxic doses and inconclusive results are not listed.
# Tested on: BDF1 mice, P388 leukemia ip, median survival T/C
# Assay: NCI In Vivo Anticancer Drug Screen. Data for tumor model P388 Leukemia (intraperitoneal) in B6D2F1 (BDF1) mice
# Conditions: endpoint: median survival time, higher = longer survival
# Outline: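 Reported as T/C, where T is the survival measurement in dosed animals and C the same measurement in vehicle controls.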
# [1] = dose: 150.0 mg/kg/injection, schedule: Q04DX003 (ip), vehicle: saline sonified
# [2] = dose: 100.0 mg/kg/injection, schedule: Q04DX003 (ip), vehicle: saline with Tween-80
# [3] = dose: 200.0 mg/kg/injection, schedule: Q04DX003 (ip), vehicle: saline with Tween-80
# [4] = dose: 400.0 mg/kg/injection, schedule: Q04DX003 (ip), vehicle: saline with Tween-80
# [5] = dose: 50.0 mg/kg/injection, schedule: Q01DX009 (ip), vehicle: saline with Tween-80
# [6] = dose: 100.0 mg/kg/injection, schedule: Q01DX009 (ip), vehicle: saline with Tween-80
# [7] = dose: 200.0 mg/kg/injection, schedule: Q01DX009 (ip), vehicle: saline with Tween-80
# [8] = dose: 400.0 mg/kg/injection, schedule: Q01DX009 (ip), vehicle: saline with Tween-80
compound,measurement,setting,value
CCCN(CCC)C(=S)[S-].CCCN(CCC)C(=S)[S-].[Zn],T/C,"dose: 37.5 mg/kg/injection, schedule: Q04DX003 (ip), vehicle: saline sonified",100 % of control
same,T/C,"dose: 75.0 mg/kg/injection, schedule: Q04DX003 (ip), vehicle: saline sonified",100 % of control
same,T/C,[1],112 % of control
Nc1nc(N)c2cc(CNc3ccc(C(=O)NC(CC(=O)O)CC(=O)O)cc3)cnc2n1,T/C,[2],101 % of control
same,T/C,[3],113 % of control
same,T/C,"dose: 300.0 mg/kg/injection, schedule: Q04DX003 (ip), vehicle: saline with Tween-80",86 % of control
CC(=O)Oc1cc([N+](=O)[O-])ccc1C(=O)O,T/C,[2],104 % of control
same,T/C,[3],108 % of control
same,T/C,[4],100 % of control
Cc1cc(N(C)C)cc(C)c1N=Nc1cc[n+]([O-])cc1,T/C,[5],104 % of control
same,T/C,[6],124 % of control
CC(C)c1cc(C(C)C)n2nc(N)nc2n1,T/C,[6],100 % of control
same,T/C,[7],95 % of control
same,T/C,[8],90 % of control
COC(=O)CCSCCC(=O)OC,T/C,[6],100 % of control
same,T/C,[2],110 % of control
same,T/C,[7],100 % of control
same,T/C,[3],100 % of control
same,T/C,[8],100 % of control
same,T/C,[4],105 % of control
Cc1cc(N(CCCl)CCCl)c(C)cc1NC(=O)c1ccccc1,T/C,"dose: 12.5 mg/kg/injection, schedule: Q01DX009 (ip), vehicle: saline with Tween-80",195 % of control
same,T/C,"dose: 16.5 mg/kg/injection, schedule: Q04DX003 (ip), vehicle: Klucel (hydroxypropylcellulose) (HPC)",190 % of control
same,T/C,"dose: 25.0 mg/kg/injection, schedule: Q04DX003 (ip), vehicle: Klucel (hydroxypropylcellulose) (HPC)",118 % of control
same,T/C,"dose: 37.5 mg/kg/injection, schedule: Q04DX003 (ip), vehicle: Klucel (hydroxypropylcellulose) (HPC)",113 % of control
C=C(C)C(=O)NCC(=O)NC(CC(C)C)C(=O)Oc1ccc([N+](=O)[O-])cc1 (stereo not given),T/C,"dose: 25.0 mg/kg/injection, schedule: Q01DX009 (ip), vehicle: saline with Tween-80",97 % of control
same,T/C,[5],97 % of control
same,T/C,[6],90 % of control
CSc1nc(Cl)c(Cl)c(C(F)(F)F)n1,T/C,"dose: 6.25 mg/kg/injection, schedule: Q01DX005 (ip), vehicle: saline",110 % of control
same,T/C,"dose: 12.5 mg/kg/injection, schedule: Q01DX005 (ip), vehicle: saline",109 % of control
same,T/C,"dose: 25.0 mg/kg/injection, schedule: Q01DX005 (ip), vehicle: saline",115 % of control
CCOC(=O)COc1ccc(/C=C(\C)[N+](=O)[O-])c2ccccc12,T/C,[5],112 % of control and 123 % of control
same,T/C,[6],112 % of control
same,T/C,[7],122 % of control
same,T/C,[8],106 % of control
COc1cccc2c1C(=O)c1c(O)c3c(c(O)c1C2=O)C[C@@](O)(C(C)=O)C[C@@H]3OC1CC(NC(C)=O)C(O)C(C)O1 (stereo not given in full),T/C,"dose: 0.73 mg/kg/injection, schedule: Q01DX009 (ip), vehicle: saline",112 % of control
same,T/C,"dose: 1.1 mg/kg/injection, schedule: Q01DX009 (ip), vehicle: saline",175 % of control
same,T/C,"dose: 1.25 mg/kg/injection, schedule: Q04DX003 (ip), vehicle: saline",109 % of control
same,T/C,"dose: 1.65 mg/kg/injection, schedule: Q01DX009 (ip), vehicle: saline",183 % of control
same,T/C,"dose: 2.5 mg/kg/injection, schedule: Q01DX009 (ip), vehicle: saline",187 % of control
same,T/C,"dose: 10.0 mg/kg/injection, schedule: Q04DX003 (ip), vehicle: saline",172 % of control
same,T/C,"dose: 12.5 mg/kg/injection, schedule: Q01DX009 (ip), vehicle: saline",240 % of control and 191 % of control
same,T/C,"dose: 12.5 mg/kg/injection, schedule: Q01DX009 (ip), vehicle: water",169 % of control
same,T/C,"dose: 25.0 mg/kg/injection, schedule: Q01DX009 (ip), vehicle: saline",150 % of control
same,T/C,"dose: 25.0 mg/kg/injection, schedule: Q01DX009 (ip), vehicle: water",192 % of control
same,T/C,"dose: 44.0 mg/kg/injection, schedule: Q04DX003 (ip), vehicle: saline sonified",180 % of control
same,T/C,"dose: 44.0 mg/kg/injection, schedule: Q04DX003 (ip), vehicle: saline",159 % of control
same,T/C,"dose: 50.0 mg/kg/injection, schedule: Q01DX009 (ip), vehicle: saline",227 % of control
same,T/C,"dose: 50.0 mg/kg/injection, schedule: Q01DX009 (ip), vehicle: water",204 % of control
same,T/C,"dose: 66.0 mg/kg/injection, schedule: Q04DX003 (ip), vehicle: saline sonified",175 % of control
same,T/C,"dose: 66.0 mg/kg/injection, schedule: Q04DX003 (ip), vehicle: saline",181 % of control
same,T/C,"dose: 100.0 mg/kg/injection, schedule: Q01DX009 (ip), vehicle: water",114 % of control
same,T/C,"dose: 100.0 mg/kg/injection, schedule: Q04DX003 (ip), vehicle: saline sonified",205 % of control
same,T/C,"dose: 100.0 mg/kg/injection, schedule: Q04DX003 (ip), vehicle: saline",195 % of control
same,T/C,[1],180 % of control
same,T/C,"dose: 150.0 mg/kg/injection, schedule: Q04DX003 (ip), vehicle: saline",168 % of control
